# Earlier results in patent US20080003278A1, “Food products and dietary supplements for improving mental performance” (priority 2006, published 2008).
# System: epileptic seizures
# Conditions: thirty-one patients participating in the study
structure (smiles),measurement,value
CCOC(=O)C1=C[C@]2(CC)CCCN3CCc4c(n1c1ccccc41)[C@@H]32 [vinpocetine],"patients in whom the frequency of epileptic seizures was reduced and, in some cases, seizures completely eliminated",twenty of the thirty-one
